These results are taken from patent publication US20080153796A1, “Promotion of wound contraction” (RENOVO LIMITED, priority 2006, published 2008).

In series [1] the test system is full thickness cutaneous excisional wounds (punch biopsies). In words: Wound width three days after punch biopsies in human volunteers (histological assessment). It counts as in vivo. Conditions: day 3; for average wound width: single intradermal injection 10-30 min before 3 mm punch biopsy. The text has this: A single site, double-blind study was undertaken to illustrate the efficacy of medicaments of the invention in promoting contraction of punch biopsy wounds in healthy male and post-menopausal female subjects. The control treatments used in this study were Placebo (vehicle) and Standard Care (moist wound healing dressings).
44 healthy subjects were recruited to the study, of whom, 40 were healthy males (aged 18-75years) and 4 were post-menopausal females (aged 53-69 years). The average age of subjects recruited to this study was 42 years. The post-menopausal status of female subjects was confirmed by quantification of serum levels of estradiol and follicle stimulating hormone (FSH). Serum levels of estradiol were required to be <90 pmol/L, and follicle stimulating hormone levels >31 IU/L.
Before wounding, each subject received either a medicament of the invention (providing a 100 μl intradermal injection of a solution comprising 400 ng of 17β-oestradiol in a diluent comprising PBS and 5% v/v ethanol), or a control medicament (two used, providing a 100 μl intradermal injection of a solution comprising either 20 ng or 100 ng respectively of 17β-oestradiol in a diluent comprising PBS and 5% v/v ethanol). The experimental medicaments (either of the invention or control) were administered intradermally as a single dose at a volume of 100 μl per wound site, 10-30 minutes before wounding to sites on the upper, inner aspect of the arm. This administration was sufficient to prophylactically “prime” an area of 1 cm^2 of unwounded skin prior to wounding. Wounds were made with a 3 mm punch biopsy.
Biopsy sites were excised, using a 5 mm punch biopsy, three days after wounding. Excised wounds were preserved for histological assessment of wound width. All histological assessments were made using preserved 5 micron-thickness wound sections taken from the widest part of each excised biopsy site. Sections were stained with Haematoxylin and Eosin to aid visualisation of structural features, and measurements made using image analysis software. The wound diameter is the linear total wound diameter of the wound section measured in micrometres. The average wound diameter value was calculated from the 44 wounds of each treatment group.

The conditions of series [2]: 100 μg of oestradiol applied in a gel; six hours from application; cited from earlier work.
For series [3] the following is noted: matrix of U.S. Pat. No. 5,252,334, without drug delivery rate enhancers; cited from earlier work.

Each structure is given as a SMILES string.

As for `C[C@]12CC[C@@H]3c4ccc(O)cc4CC[C@H]3[C@@H]1CC[C@@H]2O` [17β-oestradiol], the average wound width in series [1] (20 ng 17β-oestradiol in 100 μl PBS/5% v/v ethanol, control medicament) was 2626 μm; in series [1] (100 ng 17β-oestradiol in 100 μl PBS/5% v/v ethanol, control medicament), 2612 μm; in series [1] (400 ng 17β-oestradiol in 100 μl PBS/5% v/v ethanol, medicament of the invention), 2480 μm. Moreover, the “wound width compared to control treated or untreated wounds” value in series [1] (400 ng 17β-oestradiol, intradermal) was “significantly decreased”. Also, the “amount of applied oestradiol found in the skin or having passed through the skin” value in series [2] was 15.7 µg. Also, in series [3], the “rate of administration per hour per square centimetre of skin” value was “approximately 0.2 μg”.
